{"source": "paper PMC6321321", "about": "(Pharmaceutics, 2018)", "key": {"[1]": {"test_system": "Caco-2 cell monolayers", "experiment": "TEER measurement of Caco-2 monolayer", "type": "cell-based, human", "conditions": "37 °C, N=3", "protocol": "In preparation for the assays, the cell membranes were allowed to equilibrate for 30 min in transport buffer; HBSS (pH 7.4) with 0.001% MC was added to the apical (0.5 mL) and basal (1.5 mL) chambers of the transwell.\nThe TEER of the Caco-2 monolayer was measured to confirm cell growth and differentiation on the insert filter of the transwell using a Millicell ERS-2 (Millipore Corp., Bedford, MA, USA). Before seeding the Caco-2 cells, the electrical resistance of the insert filter in the medium was measured and subtracted from the total electrical resistance determined for the monolayer to calculate the intrinsic TEER of the monolayer. The TEER of the monolayer was measured at the end of the 2 h incubation to detect any negative effects of the applied L-tryptophan on the intercellular tight junctions. The TEER is expressed as a percentage calculated by dividing the TEER value (Ω cm^2) at 2 h by the initial value."}, "[2]": {"test_system": "rat ileal segments", "experiment": "In situ LDH leakage from rat ileal segments", "type": "in vivo", "conditions": "rat ileal loop; insulin 50 IU/kg with L-tryptophan 16 and 32 mM; fluid collected 60 min after administration; N=3; positive control 5% sodium taurodeoxycholate", "quoted_text": "(§2) To assess the cytotoxic effects of L-tryptophan, the integrity of the cell membrane after treatment with the CPPs was examined by measuring the lactate dehydrogenase (LDH) released from the cytoplasm under both in vitro and in situ conditions.\nFor the trial with the highest concentration of L-tryptophan (50 mM), L-arginine (40 mM) was added as a solubilizing agent. For this test, 5% sodium taurodeoxycholate was used as a positive control. At 60 min after administration, the ileal loop was washed with 5.0 mL of PBS and then intestinal fluid was collected. After adjusting the collected intestinal fluid to a total volume of 6.0 mL with PBS, the activity of LDH (Unit) leaked into the intestinal fluid was determined using an LDH kit (Promega Corp.)."}, "[3]": {"test_system": "Caco-2 cells", "experiment": "Cell viability assay (WST-8, CCK-8)", "type": "cell-based, human", "conditions": "completed DMEM, 600–2400 μM, 2 h then 3 h with CCK-8, N=6-11", "quoted_text": "To examine the cellular viability of Caco-2 cells exposed to L-tryptophan, a WST-8 assay was performed with Cell Counting Kit-8 (CCK-8, Dojindo Laboratories, Kumamoto, Japan). The Caco-2 cells were grown in 96-well plates with a 0.33 cm^2 culture area (Nippon Becton Dickinson) to a density of 3.0 × 10^4 cells/cm^2 and then grown in 100 μL of completed DMEM for 3 or 4 days. In this assay, the completed DMEM was used in place of the incubation buffer to prevent the possible loss of cell viability during total 5 h incubation in HBSS. First, 10 μL of L-tryptophan stock solution (eleven times concentration) or transport buffer was added to 100 μL of completed DMEM and the cells were incubated with various concentrations of L-tryptophan (600–2400 μM) for 2 h. Then, 10 μL of CCK-8 reagent was added to the wells and the cells were incubated for an additional 3 h to allow for the reductive reaction of WST-8. The resulting absorbances of the incubated solution in the wells were read with a microplate reader (Synergy HT, BioTek Instruments Inc.) at a wavelength of 450 nm. In this assay, 0.8% of Triton X-100 was used as a positive control, same as the LDH assay."}, "[4]": {"target": "T1, insulin (Homo sapiens, UniProt P01308)", "T1 construct": "purchased Wako Pure Chemical Industries, Ltd. (Osaka, Japan)", "T1 sequence (P01308 25-54 limits assumed)": "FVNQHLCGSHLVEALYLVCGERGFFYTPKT", "T1 sequence (P01308 90-110 limits assumed)": "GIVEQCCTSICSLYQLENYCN", "experiment": "SPR-based binding assay on immobilized insulin", "protocol": "Reference surfaces were prepared by amine coupling activation followed by immediate deactivation. […] At the end of each cycle, the surface was regenerated by a 30 s injection of 1 M NaCl. […] Each sensorgram was determined by subtracting nonspecific binding on the surface of the reference flow cell from total binding on the immobilized-insulin surface."}, "[5]": {"test_system": "Caco-2 cells", "experiment": "In vitro LDH leakage", "type": "cell-based, human", "conditions": "HBSS pH 7.4 with 0.001% MC, 300–2400 μM, 120 min, 37 °C, relative to 0.8% Triton X-100, N=3", "quoted_text": "as §2\nIn the in vitro assay, the Caco-2 cells were grown in 24-well plates with a 1.88 cm^2 culture area (Nippon Becton Dickinson) at the density of 1.0 × 10^5 cells/cm^2 and then grown in completed DMEM for 3 or 4 days. Before the addition of L-tryptophan, cell membranes were allowed to equilibrate in 0.5 mL of assay buffer for 30 min. HBSS containing 0.001% MC (pH 7.4) was added to the wells as the transport buffer. After a 30 min pre-incubation with transport buffer, the assay was initiated by replacing 50 μL of transport buffer with 50 μL of L-tryptophan stock solution (ten times concentration) or transport buffer. […] The incubation buffer was collected and LDH released from the cytoplasm into the incubation buffer was determined using a CytoTox 96 Non-Radioactive Cytotoxicity Assay kit (Promega Corp., Madison, WI, USA). Cytotoxicity was expressed as the percentage calculated by dividing the absorbance of the vehicle (HBSS) or the L-tryptophan-treated sample by that of a sample treated with 0.8% Triton X-100, according to the instructions of assay kit."}, "[6]": {"experiment": "In vivo oral administration study, blood glucose levels", "conditions": "mice fasted 24 h; oral gavage insulin 50 IU/kg with L-tryptophan 32 mM (100 μL); blood glucose 0-360 min; N=6-8", "quoted_text": "Blood glucose levels were measured (One Touch Ultra View, Johnson & Johnson K.K., Tokyo, Japan) by collection of blood (one drop) from a small cut in the tail vein at t = 0 (prior to dosing), 15, 30, 60, 120, 180, 240, 300 and 360 min after administration. Blood glucose levels are depicted as percentage of the initial value in same mouse. Mice were trained with oral dosing and tail cutting at 24 h and 60 min prior to actual drug administration to avoid the unexpected elevation of blood glucose levels during experiments."}, "[7]": {"experiment": "In situ closed ileum loop absorption of dextrans and peptide drugs with or without L-tryptophan", "protocol": "Additional i.p. injections of sodium pentobarbital (12.5 mg/kg) were administered every 1 h to maintain anesthesia. The ileum was exposed following a small midline incision made carefully in the abdomen. Its proximal to ileocecal junction segments (length = 10 cm) were cannulated at both ends using polypropylene tubing and ligated securely to prevent fluid loss. To wash out the intestinal contents, PBS warmed to 37 °C was circulated through the cannula at 5.0 mL/min for 4 min using an infusion pump. The cannulation tubing was removed, the segments were closed tightly and returned carefully to their original location inside the peritoneal cavity. Rats were kept on the board at 37 °C for an additional 30 min to calm biological reactions such as elevated blood glucose levels resulting from the stress imposed by surgery. […] To examine dose dependency, the final concentrations of tryptophan were adjusted to 4, 8, 16 and 32 mM. […]\n(§1) During the experiment, 0.25 mL blood aliquots were taken from the jugular vein at 0, 5, 10, 15, 30, 60, 120 and 180 min after dosing. […] The plasma concentrations of FDs were measured with a microplate fluorimeter (Synergy HT, BioTek Instruments Inc., Winooski, VT, USA) at excitation and emission wavelengths of 485 and 528 nm, respectively."}, "[8]": {"experiment": "In situ closed ileum loop administration study: insulin co-administered with additives", "conditions": "in situ rat ileal loop; for Effect on the intestinal absorption of insulin (in words): insulin 50 IU/kg co-administered with additive at 32 mM, N=3-8", "protocol": "Additional i.p. injections of sodium pentobarbital (12.5 mg/kg) were administered every 1 h to maintain anesthesia. The ileum was exposed following a small midline incision made carefully in the abdomen. Its proximal to ileocecal junction segments (length = 10 cm) were cannulated at both ends using polypropylene tubing and ligated securely to prevent fluid loss. To wash out the intestinal contents, PBS warmed to 37 °C was circulated through the cannula at 5.0 mL/min for 4 min using an infusion pump. The cannulation tubing was removed, the segments were closed tightly and returned carefully to their original location inside the peritoneal cavity. Rats were kept on the board at 37 °C for an additional 30 min to calm biological reactions such as elevated blood glucose levels resulting from the stress imposed by surgery. […] To examine dose dependency, the final concentrations of tryptophan were adjusted to 4, 8, 16 and 32 mM. In the comparison study with three hydrophobic amino acids or metabolite of L-tryptophan, the final concentrations of L-isoleucine, L-proline, L-phenylalanine and serotonin were 32 mM. In the study examining the synergistic effect of L-arginine and L-tryptophan, the final concentration of L-arginine was fixed at 40 mM.\nas §1, with “dosing. The tuberculin syringes (1 mL, Terumo Corp., Tokyo, Japan) were heparinized by the standard procedure of coating the syringe wall with aspirated heparin and then expelling all the heparin.” for “dosing.”"}, "[9]": {"test_system": "Caco-2 cell monolayers", "experiment": "Transcellular transport assay: insulin permeation through Caco-2 monolayer", "conditions": "Caco-2 transwell, apical to basal, insulin 15 μM co-incubated with additive 2.4 or 16 mM, HBSS pH 7.4, 2 h, 37 °C; N=3", "quoted_text": "For TEER measurement, Caco-2 cells were grown in 12-well transwell plates with a 1.13 cm^2 culture area (collagen-coated polytetrafluoroethylene (PTFE) membrane with 0.4 μm pore size, Corning Inc., Corning, NY, USA). The cells were cultured to a density of 1.0 × 10^5 cells/cm^2. […] The culture medium was changed every second day and the electrical resistance was monitored by the method described below. Each well consisted of apical (top) and basal (bottom) chambers, which were separated by a collagen-coated polytetrafluoroethylene membrane with a pore size of 0.4 μm and a filter area of 1.12 cm^2.\nIn preparation for the assays, the cell membranes were allowed to equilibrate for 30 min in transport buffer; HBSS (pH 7.4) with 0.001% MC was added to the apical (0.5 mL) and basal (1.5 mL) chambers of the transwell. […] During the incubation, the Caco-2 monolayer was kept at physiological temperature (37 °C)."}, "[10]": {"conditions": "insulin co-administered with additive at 40 mM; cited from earlier work"}, "[11]": {"test_system": "Caco-2 cell monolayers", "conditions": "9.6 mM (equivalent to 4.2 mg/kg in the animal study) added to transwell; cited from earlier work"}}}
{"molecule": "N[C@@H](Cc1c[nH]c2ccccc12)C(=O)O", "note": "[L-Tryptophan, L-tryptophan]", "values": [{"measurement": "Change in TEER of Caco-2 cell monolayers", "setting": "[1]; apical, insulin 15 μM with additive 600–16,000 μM, HBSS pH 7.4, 2 h, TEER at 120 min vs initial", "result": "No change in the TEER values"}, {"measurement": "Leakage of LDH into intestinal fluid (in situ)", "setting": "[2]", "result": "negligible"}, {"measurement": "Cell viability (WST-8)", "setting": "[3]", "result": "no decrease in cell viability"}, {"measurement": "Binding to immobilized insulin (SPR sensorgram)", "setting": "[4]; CM5 chip, analyte 2–200 μM, HBSS pH 7.4 with 0.001% MC, 25 °C, 90 s injection", "result": "do not show an increase"}, {"measurement": "Release of LDH into the media (in vitro)", "setting": "[5]", "result": "no release of LDH"}, {"measurement": "Hypoglycemic reaction / oral absorption of insulin (blood glucose levels)", "setting": "[6]", "result": "could enhance the oral absorption of insulin"}]}
{"molecule": "GLP-1", "values": [{"measurement": "AUC, −L-Tryptophan", "setting": "[7]; rat, in vivo, 1.25 mg/kg", "result": "1.35 ± 0.27", "unit": "ng·h/mL"}]}
{"molecule": "O=C(O)[C@@H]1CCCN1", "note": "[L-proline]", "values": [{"measurement": "Effect on the intestinal absorption of insulin (in words)", "setting": "[8]", "result": "no stimulatory effect on insulin absorption"}]}
{"molecule": "NCCc1c[nH]c2ccc(O)cc12", "note": "[Serotonin, serotonin]", "values": [{"measurement": "Change in TEER of Caco-2 cell monolayers", "setting": "[1]; apical, insulin 15 μM with additive 2.4 or 16 mM, HBSS pH 7.4, 2 h", "result": "increased the TEER"}, {"measurement": "Permeation of insulin through Caco-2 monolayer", "setting": "[9]", "result": "no stimulatory effect on the permeation of insulin"}, {"measurement": "Effect on the intestinal absorption of insulin (in words)", "setting": "[8]", "result": "could enhance the intestinal absorption of insulin"}]}
{"molecule": "N=C(N)NCCC[C@H](N)C(=O)O", "note": "[L-arginine]", "values": [{"measurement": "Binding with insulin", "setting": "[4]; data not shown", "result": "showed no binding with insulin"}, {"measurement": "Effect on the intestinal absorption of peptide drugs (GLP-1, Exendin-4)", "setting": "[7]; data not shown", "result": "had no effect on the intestinal absorption of such peptide drugs"}, {"measurement": "Tmax of insulin absorption after co-administration", "setting": "[10]", "result": "12.8 ± 0.9", "unit": "min"}, {"measurement": "Opening of tight junctions in Caco-2 cell monolayers", "setting": "[11]", "result": "no opening of tight junctions was observed"}]}
{"molecule": "CC[C@H](C)[C@H](N)C(=O)O", "note": "[L-isoleucine]", "values": [{"measurement": "Effect on the intestinal absorption of insulin (in words)", "setting": "[8]", "result": "no stimulatory effect on insulin absorption"}]}
{"molecule": "RQIKIWFQNRRMKWKK [L-penetratin]", "values": [{"measurement": "Onset of action / of insulin absorption after co-administration", "setting": "[8]; insulin 50 IU/kg co-administered with L-tryptophan 8-32 mM, L-penetratin 0.5 mM or D-tryptophan 16 and 32 mM, time after administration", "result": 15, "unit": "min"}]}
{"molecule": "N[C@@H](Cc1ccccc1)C(=O)O", "note": "[L-phenylalanine]", "values": [{"measurement": "Effect on the intestinal absorption of insulin (in words)", "setting": "[8]", "result": "no stimulatory effect on insulin absorption"}]}
{"molecule": "CCCCCCCCCC(=O)[O-].[Na+]", "note": "[C10, sodium caprate]", "values": [{"measurement": "Change in TEER of Caco-2 cell monolayers", "setting": "[1]; typical enhancer as positive control, concentration not given, 2 h", "result": "significant reduction in TEER"}]}
